Measurements: patent US20250043250A1, “COMPOSITIONS AND METHODS FOR EXPANDING KERATINOCYTES” (STEMCELL Technologies Canada Inc., priority 2021, published 2025)

Experiments:
[1] = tested on: PSC-derived keratinocytes; test: Adherent monolayer culture of dissociated PSC-derived hair-bearing skin organoid cells: colony emergence and morphology; assay type: cell-based, human; details: H9 ES and 1C iPS derived cells, HKGS medium supplemented with the small molecule(s) (FIG. 11)
Procedure: The aggregates of Example 1 were plated under non-adherent conditions in an AggreWell™ or a 96-well plate, and cultured for 12 days in a skin organoid induction medium, such as STEMdiff™ Skin Organoid Induction Medium (STEMCELL Technologies). Following, the skin organoids are transferred into STEMdiff™ Skin Organoids Maturation Medium (STEMCELL Technologies) for at least 8 weeks, adding or changing the medium every 3-4 days. After the skin organoids have matured, preferably presenting as hair-bearing skin organoids (e.g. hair placode present skin organoids), they are dissociated overnight in a 37 degree incubator in a Dispase solution. […]
Various commercially available cell culture media are marketed for the purpose of culturing human epidermal keratinocytes: EpiLife™ Defined Growth Supplement for use with EpiLife™ medium; Gibco™ Human Keratinocyte Growth Supplement for use with EpiLife medium or Medium 154; and Cnt-57 Epithelial Proliferation Medium. […] Population doublings were also assessed over several weeks for keratinocytes grown from various PSC lines in a culture medium of this disclosure in comparison to EpiLife EDGS and EpiLife HKGS. […]

TP63 = test: FACS analysis of TP63+ cells; assay type: cell-based, human; details: 1C iPS derived skin organoid cells, HKGS medium with or without supplement (FIG. 12)
Description: WLS-1C iPS cells were formed into hair-bearing skin organoids as described herein and dissociated prior to plating the cells in EpiLife HKGS, or in EpiLife HKGS supplemented with the indicated small molecules. The cells were stained for TP63 expression and analyzed by FACS.
The ability of a commercially available medium to expand PSC-derived keratinocytes could be somewhat restored upon supplementation with one or more small molecule inhibitors, but not to the levels of DermaCult™ (FIG. 11). Specifically, HKGS medium was supplemented with A83-01, DAPT, Y-27632, or all three of A83-01, DAPT, and Y-27632. […] These findings were confirmed in a different experiment where 1C iPS cells were cultured in the foregoing media conditions and analyzed for p63 expression, to distinguish keratinocytes from other cell types included in the PSC-derived skin organoids, such as fibroblasts (FIG. 12).

Compound: C[C@@H](N)[C@H]1CC[C@H](C(=O)Nc2ccncc2)CC1 [Y-27632]
- emergence of colonies in supplemented HKGS medium [1]: emergence of colonies
- emergence of p63+ cells (TP63): emergence of comparable numbers of p63+ cells
